{"source": "patent US20260116928A1", "about": "“COMPOSITIONS AND PARTICLES FOR PAYLOAD DELIVERY” (Thornhill Therapeutics, Inc., priority 2019, published 2026)", "experiment": "Glucose challenge model", "assay_type": "in vivo, male CD1 mice", "conditions": "mice, IP glucose challenge; 10 μg IP injection", "excerpt": "The glucose challenge model used to test SEQ ID NO: 70-Exenatide was designed to examine the capacity of a GLP-1-like activity to enhance the rate of recovery from a glucose excursion.\nThe male CD1 mice used in the glucose challenge test were 9-16 weeks of age. To minimize stress due to handling, animals were acclimatized to the environment, blood sampling, and dosing procedures for 1 week prior to the start of experiments, as plasma glucose can be responsive to handling stress. Mice were fasted for 18 h prior to study. […] Blood samples were taken at t=0, 15, 30, 45, 60 min; 2, 3, and 4 hr. Blood glucose measurements were made using 5 μL blood sample taken from the tail with a commercial glucometer that was calibrated with glucose standards prior to the start of the study.", "data": [{"substance": "Exenatide (1-40)-Gly", "values": [{"measurement": "time at which correction of the blood glucose excursion began", "result": 15, "unit": "min"}, {"measurement": "time by which the correction profile was completed", "result": "≤ 120", "unit": "min"}]}]}
